Experimental data from US20260317324A1, “BIFUNCTIONAL COMPOUNDS FOR DEGRADING BRAF VIA UBIQUITIN PROTEOSOME PATHWAY” (Nurix Therapeutics, Inc., priority 2023, published 2026).

Tests used:
Type in all cases: cell-based
[1] = biological target: T1, BRAF D594G (Homo sapiens, UniProt P15056, D594G); assay: BRAF HiBiT degradation assay, C-terminal HiBiT-tagged BRAF D594G overexpressed in HCT-116 BRAF−/− cells (clone 63), Nano-Glo HiBiT Lytic assay
T1 construct: Horizon Discovery (HCT-116 BRAF−/− cells); host or cells: HCT-116 BRAF−/− cells, clone 63, lentiviral transduction
In short: (§1)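 We quantified degradation of the C-terminally HiBiT-tagged, overexpressed mutant by lytic luminescence, normalizing to DMSO-treated cells with wild-type HCT-116 background subtracted. Dose series ran from 1 μM to 0.01 nM at 0.2% DMSO. Observed Dmax is % degraded at maximal effect.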

[2] = biological target: T2, BRAF G466V (Homo sapiens, UniProt P15056, G466V); assay: BRAF HiBiT degradation assay, C-terminal HiBiT-tagged BRAF G466V overexpressed in HCT-116 BRAF−/− cells (clone 8), Nano-Glo HiBiT Lytic assay
T2 construct: Horizon Discovery (HCT-116 BRAF−/− cells); host or cells: HCT-116 BRAF−/− cells, clone 8, lentiviral transduction
In short: as §1

[3] = biological target: T3, BRAF G469A (Homo sapiens, UniProt P15056, G469A); assay: BRAF HiBiT degradation assay, C-terminal HiBiT-tagged BRAF G469A overexpressed in HCT-116 BRAF−/− cells (clone 34), Nano-Glo HiBiT Lytic assay
T3 construct: Horizon Discovery (HCT-116 BRAF−/− cells); host or cells: HCT-116 BRAF−/− cells, clone 34, lentiviral transduction
In short: as §1

[4] = biological target: T4, BRAF V600E (Homo sapiens, UniProt P15056, V600E); assay: BRAF HiBiT degradation assay, C-terminal HiBiT-tagged BRAF V600E A375 cells (clone 1F10), Nano-Glo HiBiT Lytic assay; conditions: for Dmax: A-375
T4 construct: endogenous C-terminal HiBiT fusion tag on BRAF V600E allele; endogenous in cells; host or cells: A375 clone 1F10 (CRISPR-Cas9 knock-in of the HiBiT tag; parental A375 from ATCC)
In short: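 Steps: seed HiBiT-tagged A375 clone 1F10 cells; incubate 24 h, 37 °C, 5% CO2; add compound (11 half-log points from 1 μM, 0.2% DMSO); lyse with HiBiT detection reagent plus LgBiT for 10 min; read luminescence; fit % protein remaining against concentration.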

[5] = BRAF D594G, DC50 at 50%: fitted conc. at Y=50
[6] = HCT-116, BRAF D594G, percentage protein degraded at maximal compound effect relative to DMSO
[7] = BRAF G466V, DC50 at 50%: fitted conc. at Y=50
[8] = HCT-116, BRAF G466V, percentage protein degraded at maximal compound effect relative to DMSO
[9] = Class 2, BRAF G469A, DC50 at 50%: fitted conc. at Y=50
[10] = HCT-116, Class 2, BRAF G469A, percentage protein degraded at maximal compound effect relative to DMSO
[11] = A375 (BRAF V600E), DC50 at 50%: fitted conc. at Y=50
[12] = A375 (BRAF V600E), percentage protein degraded at maximal compound effect relative to DMSO
[13] = BRAF D594G (Class 3), HCT-116 BRAF−/− cells, DC50 at 50% degradation
[14] = BRAF D594G (Class 3), HCT-116 BRAF−/− cells, observed Dmax relative to DMSO control
[15] = BRAF G466V (Class 3), HCT-116 BRAF−/− cells, DC50 at 50% degradation
[16] = BRAF G466V (Class 3), HCT-116 BRAF−/− cells, observed Dmax relative to DMSO control
[17] = BRAF G469A (Class 2), HCT-116 BRAF−/− cells, DC50 at 50% degradation
[18] = BRAF G469A (Class 2), HCT-116 BRAF−/− cells, observed Dmax relative to DMSO control
[19] = A375 (BRAF V600E, Class 1), DC50 at 50% degradation
[20] = A375 (BRAF V600E, Class 1), observed Dmax, % protein degraded relative to DMSO control

T1 sequence (P15056 whole entry D594G): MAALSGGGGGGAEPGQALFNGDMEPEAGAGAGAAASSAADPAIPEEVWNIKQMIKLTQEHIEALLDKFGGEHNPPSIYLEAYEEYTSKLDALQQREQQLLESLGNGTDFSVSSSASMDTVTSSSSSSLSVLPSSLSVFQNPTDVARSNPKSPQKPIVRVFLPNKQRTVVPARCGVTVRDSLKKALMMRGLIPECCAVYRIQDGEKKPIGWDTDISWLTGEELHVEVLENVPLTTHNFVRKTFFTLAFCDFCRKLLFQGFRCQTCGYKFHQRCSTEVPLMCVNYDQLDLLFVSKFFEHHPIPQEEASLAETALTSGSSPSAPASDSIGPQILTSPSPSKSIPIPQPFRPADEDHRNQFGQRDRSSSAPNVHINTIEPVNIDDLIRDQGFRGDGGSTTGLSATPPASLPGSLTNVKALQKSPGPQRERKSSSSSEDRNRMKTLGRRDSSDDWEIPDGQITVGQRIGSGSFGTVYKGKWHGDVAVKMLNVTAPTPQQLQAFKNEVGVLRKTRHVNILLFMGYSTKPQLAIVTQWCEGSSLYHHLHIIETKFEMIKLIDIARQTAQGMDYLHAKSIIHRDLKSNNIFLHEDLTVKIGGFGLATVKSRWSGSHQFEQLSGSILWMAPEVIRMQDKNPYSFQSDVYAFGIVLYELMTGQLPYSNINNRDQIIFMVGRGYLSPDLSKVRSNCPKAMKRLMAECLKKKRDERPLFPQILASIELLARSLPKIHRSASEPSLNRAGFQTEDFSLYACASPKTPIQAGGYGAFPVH
T4 sequence (P15056 whole entry V600E, the tested form may be a part): as the sequence (P15056 whole entry D594G) above, with G594D, V600E counted along it
T3 sequence (P15056 whole entry G469A): as the sequence (P15056 whole entry D594G) above, with G469A, G594D counted along it
T2 sequence (P15056 whole entry G466V): as the sequence (P15056 whole entry D594G) above, with G466V, G594D counted along it

SMILES | DC50 [1, 5] [nM] | Dmax [1, 6] [%] | DC50 [2, 7] [nM] | Dmax [2, 8] [%] | DC50 [3, 9] [nM] | Dmax [3, 10] [%] | DC50 [4, 11] [nM] | Dmax [4, 12] [%] | DC50 [1, 13] [nM] | Dmax [1, 14] [%] | DC50 [2, 15] [nM] | Dmax [2, 16] [%] | DC50 [3, 17] [nM] | Dmax [3, 18] [%] | DC50 [4, 19] [nM] | Dmax [4, 20] [%]
CCN(C)S(=O)(=O)Nc1cccc(-c2nc(C(C)(C)C)sc2-c2ccnc(Nc3ccc(N4CCN(CC5CCN(c6ccc(C7CCC(=O)NC7=O)cn6)CC5)CC4)cn3)n2)c1F (racemic) [Compound 126, Rac-(3S)-3-{6-[4-({4-[6-({4-[2-tert-butyl-4-(3-{[ethyl(methyl)sulfamoyl]amino}-2-fluorophenyl)-1,3-thiazol-5-yl]pyrimidin-2-yl}amino)pyridin-3-yl]piperazin-1-yl}methyl)piperidin-1-yl]pyridin-3-yl}piperidine-2,6-dione] | < 10 | 30 to 70 | 10 to 50 | > 70 | 10 to 50 | 30 to 70 | 10 to 50 | > 70 |  |  |  |  |  |  |  | 
CCCS(=O)(=O)Nc1cccc(-c2nc(C(C)(C)C)sc2-c2ccnc(N[C@H]3CC[C@@H](N4CCN(CC5CCN(c6ccc(C7CCC(=O)NC7=O)cn6)CC5)CC4)CC3)n2)c1F (mixture of isomers) [Compound 134, N-{3-[2-tert-butyl-5-(2-{[(1s,4s)-4-{4-[(1-{5-[(3RS)-2,6-dioxopiperidin-3-yl]pyridin-2-yl}piperidin-4-yl)methyl]piperazin-1-yl}cyclohexyl]amino}pyrimidin-4-yl)-1,3-thiazol-4-yl]-2-fluorophenyl}propane-1-sulfonamide] | 10 to 50 | 30 to 70 | 10 to 50 | 30 to 70 | 50 to 500 | 30 to 70 | 10 to 50 | > 70 |  |  |  |  |  |  |  | 
CCCS(=O)(=O)Nc1cc(Cl)cc(-c2cn(-c3ccc(N4CCN(CC5CCN(c6ccc([C@H]7CCC(=O)NC7=O)cc6)CC5)[C@@H](C)C4)cc3)nc2-c2ccncc2)c1F [Compound 278, N-[5-chloro-3-(1-{4-[(3S)-4-[(1-{4-[(3R)-2,6-dioxopiperidin-3-yl]phenyl}piperidin-4-yl)methyl]-3-methylpiperazin-1-yl]phenyl}-3-(pyridin-4-yl)-1H-pyrazol-4-yl)-2-fluorophenyl]propane-1-sulfonamide] |  |  |  |  |  |  |  |  | 50 to 500 | 30 to 70 | < 10 | > 70 | > 500 | 30 to 70 | < 10 | > 70
O=C1CCC(c2ccc(N3CCC(CN4CCN(c5ccc(-n6cc(-c7cc(Cl)cc(NS(=O)(=O)N8CCCC8)c7F)c(-c7ccncc7)n6)cc5)CC4)CC3)c(F)c2)C(=O)N1 (racemic) [Compound 347, Rac-N-{5-chloro-3-[1-(4-{4-[(1-{4-[(3R)-2,6-dioxopiperidin-3-yl]-2-fluorophenyl}piperidin-4-yl)methyl]piperazin-1-yl}phenyl)-3-(pyridin-4-yl)-1H-pyrazol-4-yl]-2-fluorophenyl}pyrrolidine-1-sulfonamide] |  |  |  |  |  |  |  |  | < 10 | > 70 | < 10 | > 70 | 10 to 50 | 30 to 70 | < 10 | > 70
O=C1CC[C@H](c2ccc(N3CCC(CN4CCN(c5ccc(-n6cc(-c7cc(Cl)cc(NS(=O)(=O)C8CCCC8)c7F)c(-c7ccncc7)n6)cc5)CC4)CC3)cc2)C(=O)N1 [Compound 374, N-{5-chloro-3-[1-(4-{4-[(1-{4-[(3R)-2,6-dioxopiperidin-3-yl]phenyl}piperidin-4-yl)methyl]piperazin-1-yl}phenyl)-3-(pyridin-4-yl)-1H-pyrazol-4-yl]-2-fluorophenyl}cyclopentanesulfonamide] |  |  |  |  |  |  |  |  | 10 to 50 | 30 to 70 | 10 to 50 | > 70 | 10 to 50 | 30 to 70 | < 10 | > 70
CCCS(=O)(=O)Nc1cccc(-c2nc(C(C)(C)C)sc2-c2ccnc(Nc3cccc(OC4CCN(CC[C@@H]5CCN(c6ccc(C7CCC(=O)NC7=O)cn6)C5)CC4)c3)n2)c1F (mixture of isomers) [Compound 70, N-(3-{2-tert-butyl-5-[2-({3-[(1-{2-[(3R)-1-{5-[(3RS)-2,6-dioxopiperidin-3-yl]pyridin-2-yl}pyrrolidin-3-yl]ethyl}piperidin-4-yl)oxy]phenyl}amino)pyrimidin-4-yl]-1,3-thiazol-4-yl}-2-fluorophenyl)propane-1-sulfonamide] | > 500 | 30 to 70 | > 500 | < 30 | > 500 | < 30 | 50 to 500 | 30 to 70 |  |  |  |  |  |  |  | 
CCCS(=O)(=O)Nc1cccc(-c2nc(C(C)(C)C)sc2-c2ccnc(Nc3ccc(N4CCN(CC5CCN(c6ccc(C7CCC(=O)NC7=O)cn6)CC5)CC4)c(F)c3)n2)c1F (racemic) [Compound 45, Rac-N-[3-(2-tert-butyl-5-{2-[(4-{4-[(1-{5-[(3R)-2,6-dioxopiperidin-3-yl]pyridin-2-yl}piperidin-4-yl)methyl]piperazin-1-yl}-3-fluorophenyl)amino]pyrimidin-4-yl}-1,3-thiazol-4-yl)-2-fluorophenyl]propane-1-sulfonamide] | 10 to 50 | 30 to 70 | < 10 | > 70 | > 500 | 30 to 70 | 10 to 50 | > 70 |  |  |  |  |  |  |  | 
CCCS(=O)(=O)Nc1cccc(-c2nc(C3CCN(C(=O)C4CCN(CC5CCN(c6ccc(C7CCC(=O)NC7=O)cn6)CC5)CC4)CC3)sc2-c2ccncn2)c1F (racemic) [Compound 221, Rac-N-{3-[2-(1-{1-[(1-{5-[(3R)-2,6-dioxopiperidin-3-yl]pyridin-2-yl}piperidin-4-yl)methyl]piperidine-4-carbonyl}piperidin-4-yl)-5-(pyrimidin-4-yl)-1,3-thiazol-4-yl]-2-fluorophenyl}propane-1-sulfonamide] | > 500 | 30 to 70 | > 500 | 30 to 70 | > 500 | 30 to 70 | 10 to 50 | > 70 |  |  |  |  |  |  |  | 
O=C1CCN(c2ccc(N3CCC(CN4CCN(c5ccc(-n6cc(-c7cc(F)cc(NS(=O)(=O)N8CC[C@@H](F)C8)c7F)c(-c7ccncc7)n6)nc5)CC4)CC3)cc2)C(=O)N1 [Compound 303, (3R)—N-[3-(1-{5-[4-({1-[4-(2,4-dioxo-1,3-diazinan-1-yl)phenyl]piperidin-4-yl}methyl)piperazin-1-yl]pyridin-2-yl}-3-(pyridin-4-yl)-1H-pyrazol-4-yl)-2,5-difluorophenyl]-3-fluoropyrrolidine-1-sulfonamide] |  |  |  |  |  |  |  |  | < 10 | 30 to 70 | 10 to 50 | 30 to 70 | 50 to 500 | 30 to 70 | < 10 | > 70
O=C1CCC(c2ccc(N3CCC(CN4CCN(c5ccc(-n6cc(-c7cc(F)cc(NS(=O)(=O)N8CC[C@@H](F)C8)c7F)c(-c7ccncc7)n6)nc5)CC4)CC3)nc2)C(=O)N1 (mixture of isomers) [Compound 304, (3R)—N-{3-[1-(5-{4-[(1-{5-[(3RS)-2,6-dioxopiperidin-3-yl]pyridin-2-yl}piperidin-4-yl)methyl]piperazin-1-yl}pyridin-2-yl)-3-(pyridin-4-yl)-1H-pyrazol-4-yl]-2,5-difluorophenyl}-3-fluoropyrrolidine-1-sulfonamide] |  |  |  |  |  |  |  |  | < 10 | > 70 | < 10 | > 70 | 10 to 50 | > 70 | < 10 | > 70
